# Like-named read-outs stand apart in the source and are kept apart here.
# Columns and labels:
# human TdT = biological target: T1, human TdT (Homo sapiens, UniProt P04053); test: Terminal transferase assay, TdT; type: biochemical; details: human TdT
# T1 construct: purchased Trevigen (Gaithersburg, MD)
# Experimental: (§1) Recombinant full-length human DNA polymerase λ and β were generated and purified as described. After purification, the protein was >90% homogeneous, as judged by sodium dodecyl sulphate (SDS)−polyacrylamide gel electrophoresis (PAGE) and Coomassie staining. TdT was from Trevigen (Gaithersburg, MD).
# (§2) Terminal Transferase Assay. DNA polymerase λ and TdT terminal transferase activities were assayed in a final volume of 25 μL containing 50 mM Tris-HCl (pH 7.0), 0.25 mg/mL BSA, 1 mM DTT, 0.2 μM ss 30mer (AAC)10 DNA oligonucleotide, 25 μM [3H]dNTPs (10 Ci/mmol) and 0.5 mM MnCl2 or 5 mM MgCl2 used as cofactors. Terminal transferase activity was monitored in the presence of 10% DMSO or in the presence of increasing amounts of inhibitors dissolved in DMSO. All reactions were incubated for 10 min at 37 °C and the DNA precipitated with 10% trichloroacetic acid. Insoluble radioactive material was determined by scintillation counting using Trilux beta-counter (PerkinElmer) as described.
# (§3) Dose − response curves were generated by computer fitting of the data to the equation E(%) = Emax/(1 + I/ID50) where E(%) is the fraction of enzyme’s activity measured in the presence of the inhibitor, Emax is the activity in the absence of the inhibitor, I is the inhibitor concentration, and ID50 is the inhibitor concentration at which E(%) = 0.5 Emax. ID50 values were generated using GraphPad Prism 6.
# human DNA polymerase λ [1] = biological target: T2, human DNA polymerase λ (Homo sapiens, UniProt Q9UGP5); test: Polymerase assay, DNA polymerase λ (template-dependent); type: biochemical; details: for IC50: enzymatic assay, template-dependent polymerase activity, read-out: ID50 pol λ (Pol); for residual polymerase activities: fix concentration of 100 µM, pol λ; for pol λ (Pol) Residual activity (%) Mg2+ / pol λ (Pol) Residual activity (%) Mn2+: after treatment 100 mM
# T2 construct: Recombinant full-length human DNA polymerase λ and β were generated and purified as described; made in house
# T2 sequence (Q9UGP5 1-575): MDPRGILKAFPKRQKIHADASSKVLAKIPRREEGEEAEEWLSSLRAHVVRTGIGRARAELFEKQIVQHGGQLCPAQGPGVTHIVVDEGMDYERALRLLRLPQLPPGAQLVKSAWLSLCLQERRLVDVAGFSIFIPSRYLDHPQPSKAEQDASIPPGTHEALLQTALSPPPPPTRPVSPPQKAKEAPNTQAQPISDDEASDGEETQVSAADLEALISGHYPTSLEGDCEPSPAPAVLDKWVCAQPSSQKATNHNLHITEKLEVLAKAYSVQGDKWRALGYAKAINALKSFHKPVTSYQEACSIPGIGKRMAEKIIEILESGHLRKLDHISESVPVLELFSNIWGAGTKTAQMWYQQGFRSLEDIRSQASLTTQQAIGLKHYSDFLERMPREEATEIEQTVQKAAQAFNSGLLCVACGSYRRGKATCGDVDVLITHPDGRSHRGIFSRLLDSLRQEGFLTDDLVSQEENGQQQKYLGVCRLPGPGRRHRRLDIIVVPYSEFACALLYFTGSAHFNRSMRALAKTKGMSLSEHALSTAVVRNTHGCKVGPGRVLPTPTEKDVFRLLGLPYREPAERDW
# Experimental: as §1
# (§4) Polymerase Assay: Activity of DNA polymerase λ and β were assessed using poly(dA)/oligo(dT)10:1 substrate in a final volume of 25 μL containing 50 mM Tris-HCl (pH 7.0), 0.25 mg/mL BSA, 1 mM, DTT, 0.2 μM poly(dA)/oligo(dT)10:1 (3′-OH ends), 50 nM DNA polymerase λ or β, 5 μM [3H]-2′-deoxythymidine 5′-triphosphate (dTTP) (5 Ci/mmol), and 0.5 mM MnCl2 or 5 mM MgCl2 used as cofactors. The polymerase activity was monitored in the presence of 10% DMSO or in the presence of increasing amounts of inhibitors dissolved in DMSO. All reactions were incubated for 15 min at 37 °C and the DNA precipitated with 10% trichloroacetic acid. Insoluble radioactive material was determined by scintillation counting using Trilux beta-counter (PerkinElmer) as described.
# as §3
# human DNA polymerase λ [2] = biological target: T2, human DNA polymerase λ; test: Terminal transferase assay, DNA polymerase λ (TdT-like activity); type: biochemical; details: for IC50: enzymatic assay, TdT-like activity of pol λ, read-out: ID50 pol λ (TdT)
# Experimental: as §1, §2, §3
# human DNA polymerase β [3] = biological target: T3, human DNA polymerase β (Homo sapiens, UniProt P06746); test: Polymerase assay, DNA polymerase β; type: biochemical; details: for IC50: enzymatic assay, read-out: ID50 pol β; for residual polymerase activities: fix concentration of 100 µM, pol β; for pol β Residual activity (%) Mg2+ / pol β Residual activity (%) Mn2+: after treatment 100 mM
# T3 construct: Recombinant full-length human DNA polymerase λ and β were generated and purified as described; made in house
# Experimental: as §1, §4, §3
# [4] = tested on: leukaemia cells overexpressing TdT; parameters: method as in PMID 22390204; details: read-out: cytotoxicity activity IC50; cited from earlier work
# human DNA polymerase λ [5] = biological target: T2, human DNA polymerase λ; parameters: method as in PMID 19329428; details: enzymatic assay; cited from earlier work
# human DNA polymerase λ [6] = biological target: T2, human DNA polymerase λ; parameters: method as in PMID 19329428; details: enzymatic assay; cited from earlier work; remark: listed apart in the source
# human DNA polymerase β [7] = biological target: T3, human DNA polymerase β; parameters: method as in PMID 19329428; details: enzymatic assay; cited from earlier work
# [8] = Mg2+ as cofactor, read-out: ID50 (µM) Mg2+
# [9] = Mn2+ as cofactor, read-out: ID50 (µM) Mn2+
# T1 sequence (P04053 whole entry): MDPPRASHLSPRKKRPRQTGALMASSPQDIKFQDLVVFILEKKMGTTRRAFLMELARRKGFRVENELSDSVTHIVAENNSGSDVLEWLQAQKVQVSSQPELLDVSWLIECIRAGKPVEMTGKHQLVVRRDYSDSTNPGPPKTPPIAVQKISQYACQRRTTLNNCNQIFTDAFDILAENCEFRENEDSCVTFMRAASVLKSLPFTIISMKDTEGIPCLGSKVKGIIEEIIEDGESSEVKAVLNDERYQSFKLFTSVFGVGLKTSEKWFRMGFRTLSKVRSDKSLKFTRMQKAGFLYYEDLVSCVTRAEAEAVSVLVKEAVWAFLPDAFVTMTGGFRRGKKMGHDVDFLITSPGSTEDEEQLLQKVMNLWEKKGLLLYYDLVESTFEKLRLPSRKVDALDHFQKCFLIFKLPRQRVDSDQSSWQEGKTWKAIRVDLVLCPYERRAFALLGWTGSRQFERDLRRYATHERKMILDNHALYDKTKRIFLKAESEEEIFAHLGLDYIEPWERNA
IC50 (human TdT; [8]) [µM],IC50 (human TdT; [9]) [µM],IC50 (human DNA polymerase λ [1]) [µM],residual polymerase activities (human DNA polymerase λ [1]),IC50 (human DNA polymerase λ [2]) [µM],IC50 (human DNA polymerase β [3]) [µM],residual polymerase activities (human DNA polymerase β [3]),Compound,ID50 pol λ (Pol) (human DNA polymerase λ [5]) [µM],ID50 pol λ (TdT) (human DNA polymerase λ [6]) [µM],ID50 pol β (human DNA polymerase β [7]) [µM],other results
10.5 ± 0.2,> 50,4.07 ± 0.3,less than 10%,> 100,7.94 ± 0.1,less than 10%,CCOC(=O)/C(O)=C/C(=O)/C=C/c1cc(C(=O)c2ccccc2)cn1Cc1ccc(OC)cc1 [Compound 5i],–,–,–,–
5.1 ± 0.12,–,4.06 ± 0.2,less than 10%,> 100,20 ± 0.4,less than 10%,O=C(/C=C(\O)C(=O)O)/C=C/c1cc(C(=O)c2ccccc2)cn1Cc1ccc(Cl)cc1 [Compound 6h],–,–,–,–
–,–,–,–,–,–,–,"C#Cc1cn([C@H]2C[C@H](O)[C@@H](COP(=O)(O)OP(=O)(O)OP(=O)(O)O)O2)c2ccc([N+](=O)[O-])cc12 [3-eth-5-NITP, 3-ethynyl-5-nitroindolyl-2′-deoxynucleoside triphosphate]",–,–,–,IC50 [4]: 3.9 µM
–,10.10,–,–,–,–,–,"4-(1-(4-fluorobenzyl)-4-phenyl-1H-pyrrol-3-yl)-2,4-dioxobutanoic acid [Compound 12b]",–,–,–,"ID50 (µM) Mn2+ (human TdT; Mn2+ as cofactor): 10.10 ± 4.1 µM; pol λ (Pol) Residual activity (%) Mg2+ (human DNA polymerase λ [1]): 74.0%; pol λ (Pol) Residual activity (%) Mn2+ (human DNA polymerase λ [1]): 79.0%; pol λ (TdT) Residual activity (%) Mn2+ (human DNA polymerase λ [2]; after treatment 100 mM, Mn2+): 100%; pol β Residual activity (%) Mg2+ (human DNA polymerase β [3]): 51.7%; pol β Residual activity (%) Mn2+ (human DNA polymerase β [3]): 82.5%"
–,0.78 ± 0.04,–,–,–,–,–,O=C(/C=C(\O)C(=O)O)/C=C/c1cc(C(=O)c2cccc(F)c2)c[nH]1 [Compound 3],> 40,35 ± 1,> 40,–
–,>50,–,–,–,–,–,"Ethyl 4-(1-(4-fluorobenzyl)-4-phenyl-1H-pyrrol-3-yl)-2,4-dioxobutanoate [Compound 11b]",–,–,–,pol λ (Pol) Residual activity (%) Mg2+ (human DNA polymerase λ [1]): 70.0%; pol λ (Pol) Residual activity (%) Mn2+ (human DNA polymerase λ [1]): 94.0%; pol β Residual activity (%) Mg2+ (human DNA polymerase β [3]): 60.5%; pol β Residual activity (%) Mn2+ (human DNA polymerase β [3]): 88%
2.7 ± 0.32,> 50,4.06 ± 0.1,less than 10%,> 100,14.7 ± 0.8,less than 10%,COc1ccc(Cn2cc(C(=O)c3ccccc3)cc2/C=C/C(=O)/C=C(\O)C(=O)O)cc1 [Compound 6i],–,–,–,–
–,9.5 ± 0.1,–,–,–,–,–,O=C(/C=C(\O)C(=O)O)/C=C/c1cc(C(=O)c2ccccc2)cn1Cc1ccc(F)cc1 [Compound 2],> 40,> 40,> 40,–
17.51 ± 0.12,> 50,4.08 ± 0.4,less than 10%,> 100,12.4 ± 0.3,less than 10%,CCOC(=O)/C(O)=C/C(=O)/C=C/c1cc(C(=O)c2ccccc2)cn1Cc1ccc(Cl)cc1 [Compound 5h],–,–,–,–
–,16 ± 0.5,–,–,–,–,–,O=C(/C=C(\O)C(=O)O)/C=C/c1cc(C(=O)c2ccccc2)cn1Cc1ccccc1 [Compound 1],> 40,20 ± 1,> 40,–
–,0.58 ± 0.03,–,–,–,–,–,O=C(/C=C(\O)C(=O)O)/C=C/c1cc(C(=O)c2ccc(F)cc2)c[nH]1 [Compound 4],> 40,40 ± 1,> 40,–
